The source of these data is patent publication US7422862B2, “Methods for identifying modulators of apoptosis” (The Burnham Institute, priority 2001, dated 2008).

d = 2'-deoxy (DNA); r = 2'-OH (RNA)

Assay type in all cases: cell-based
For data set [1], the system named is endogenous Humanin. In words: siRNA knock-down of endogenous Humanin in SF268 cells (immunoblotting). As for the experimental part:
(§1) (A-D) CMS14.1 neuronal cells were transfected with plasmids encoding Flag-HN peptide or Flag-control (27-amino-acid) peptide, together with GFP-encoding plasmid at 4:1 ratio. Cells were either cultured without further treatment (open bars) or subjected to various apoptotic stimuli for various times (dark bars), including (A) STS for 8 h (dark symbols=Flag-control; open symbols=Flag-HN), (B) Serum-deprivation for 72 h, (C) 10 joules/m2 Uvirradiation followed by 24 h culture, and (D) 50 ng/ml TNFa in […] for 24 h. Cells were then fixed and stained with DAPI to determine the percentage of apoptotic cells, evaluating=200 GFP-positive cells per sample (mean±SD; n=3). (inset) Lysates prepared from replicate cultures of transfected cells were normalized for total protein content and analyzed by immunoblotting using anti-Flag (top) and anti-tubulin (bottom) antibodies, confirming production of similar amounts of Flag-control and Flag-HN peptides. […] (Upper panel) After 72 hr, cell lysates were prepared and 100 ug was analyzed by immunoblotting using anti-HN and anti-tubulin (as a loading control) antibodies. (Lower panel) At 72 hr after siRNA transfection, SF268 cells were cultured with 0.1 μM STS for 8 hrs, then % apoptosis was determined (mean+std dev; n=3). […] Apoptosis (%) was measured 48 hrs later among GFP-positive cells. […]
(In western blotting, separated proteins are transferred to a membrane and probed.)

For data set [2], the system named is SF268 cells. In words: STS-induced apoptosis in siRNA-transfected SF268 cells. The settings on record: 0.1 μM STS 8 hrs. The protocol: as §1
The test system of data set [3] is endogenous Bax protein. The experiment in a line: Subcellular fractionation and immunoblot of endogenous Bax after STS. The following applies: SF268 cells, Humanin knocked-down by siRNA. The protocol:
(A-B) Humanin peptide prevents STS-induced Bax translocation in vivo. Cos-7 cells were first transfected with GFP-Bax plasmids. After 24 hrs, untagged wild-type or C8P mutant Humanin peptides were introduced into cells using ChariotTM reagent, and 2 h later cells were treated with 1 μM STS. After 4 h, the percentage of cells with translocated Bax was determined (mean±SD; n=3) by confocal microscopy (A) and representative photomicrographs (B). (C) Wild-type or C8P mutant Humanin peptides were introduced into Cos7 cells using ChariotTM reagent. Cytosolic (C) and mitochondria-containing (M) fractions were isolated by differential centrifugation 23 and analyzed by immunoblotting using anti-Bax (top), Hsp60 (middle) (mitochondrial marker), or Tubulin (bottom) (cytosol marker) antibodies. (D) HN or mutant control double-strand siRNAs were transfected into SF268 cells. After 48 h, cells were cultured without (Control) or with 0.1 uM STS. After 24 hr, cells were fractionated and analyzed by immunoblotting as above. […] After 3 h at 30° C., mitochondria were centrifuged and the resulting pellets (P) and supernatants (S) were analyzed by immunoblotting using anti-Cytochrome c (top), Hsp60 (middle), and Bax (bottom) antibodies. […]
These findings were also confirmed by subcellular fractionation, where cytosol and mitochondria-enriched heavy membrane preparations were prepared from Cos7 cells transduced with untagged Humanin or Humanin(C8P) peptides, and the relative amounts of endogenous Bax protein in these two fractions were measured by immunoblot analysis of samples normalized for cell-equivalents. […] Differences in the relative potency of Humanin at blocking Bax translocation as measured by microscopy (FIG. 7A) versus cell fractionation methods (FIG. 7C) can be explained by differences in the sensitivity of the assays, or could possibly indicate that even in cells where some Bax translocation has occurred, less of the total Bax protein associated with mitochondria. […]

In the case of “Humanin siRNA: double-strand siRNA, sense r(CCAGUGAAAUUGACCUGCC)d(TT), SEQ ID NO:25/26 (sense CCAGUGAAAUUGACCUGCCNN; antisense GGCAGGUCAAUUUCACUGGNN; sugars from the 5' end r19 d2, backbone and the base at N not given here)”, the “endogenous levels of Humanin peptide” value in data set [1] was “reduced”. Also, the “sensitivity to STS-induced apoptosis” value in data set [2] was “increased”. Further, the “STS-induced translocation of Bax to membranes” value in data set [3] is reported as “enhanced”.
